{
  "source": "paper PMC5292991",
  "about": "“Drug trapping in hERG K^+ channels: (not) a matter of drug size?” (Medchemcomm, 2015)",
  "target": "T1, hERG K+ channel (Kv11.1) (Homo sapiens, UniProt Q12809)",
  "T1 construct": "gene KCNH2",
  "T1 sequence (Q12809 whole entry)": "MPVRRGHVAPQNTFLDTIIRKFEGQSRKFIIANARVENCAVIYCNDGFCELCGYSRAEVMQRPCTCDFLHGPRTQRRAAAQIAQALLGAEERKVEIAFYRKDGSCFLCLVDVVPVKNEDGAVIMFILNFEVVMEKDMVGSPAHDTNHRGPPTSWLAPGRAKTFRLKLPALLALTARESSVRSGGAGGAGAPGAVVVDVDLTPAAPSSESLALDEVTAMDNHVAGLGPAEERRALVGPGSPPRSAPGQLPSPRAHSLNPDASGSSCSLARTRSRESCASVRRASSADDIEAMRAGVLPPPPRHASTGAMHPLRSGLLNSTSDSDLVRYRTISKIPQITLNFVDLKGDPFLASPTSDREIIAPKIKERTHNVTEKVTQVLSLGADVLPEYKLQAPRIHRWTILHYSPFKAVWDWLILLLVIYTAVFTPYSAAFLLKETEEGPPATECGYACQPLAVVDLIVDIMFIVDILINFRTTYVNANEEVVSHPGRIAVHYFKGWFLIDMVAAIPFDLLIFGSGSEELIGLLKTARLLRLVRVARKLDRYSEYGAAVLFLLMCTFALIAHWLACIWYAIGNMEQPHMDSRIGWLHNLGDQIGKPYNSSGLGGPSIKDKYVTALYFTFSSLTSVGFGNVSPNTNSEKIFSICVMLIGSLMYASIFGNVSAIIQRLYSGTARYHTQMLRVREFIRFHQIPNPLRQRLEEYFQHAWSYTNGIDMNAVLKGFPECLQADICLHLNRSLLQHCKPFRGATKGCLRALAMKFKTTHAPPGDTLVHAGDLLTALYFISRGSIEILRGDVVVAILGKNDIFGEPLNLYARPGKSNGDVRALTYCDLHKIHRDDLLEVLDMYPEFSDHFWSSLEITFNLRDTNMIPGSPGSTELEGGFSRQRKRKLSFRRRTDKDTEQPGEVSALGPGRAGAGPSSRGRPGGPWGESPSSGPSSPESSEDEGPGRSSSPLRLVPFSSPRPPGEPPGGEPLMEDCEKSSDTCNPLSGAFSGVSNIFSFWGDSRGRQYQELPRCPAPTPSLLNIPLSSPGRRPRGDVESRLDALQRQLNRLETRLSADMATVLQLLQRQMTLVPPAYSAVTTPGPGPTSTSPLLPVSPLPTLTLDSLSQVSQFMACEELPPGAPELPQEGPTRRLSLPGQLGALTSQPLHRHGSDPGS",
  "assay": "two-microelectrode voltage clamp, hERG tail current inhibition in Xenopus oocytes; alanine mutants Y652A and F656A reduce block",
  "type": "cell-based",
  "data": [
    {"smiles": "O=C(CCc1ccccc1)c1ccccc1OCC(O)CN1CCN(C(c2ccccc2)(c2ccccc2)c2ccccc2)CC1", "note": "(stereo not shown) [FB213, 1-[2-(2-hydroxy-3-(4-tritylpiperazin-1-yl)-propoxy)phenyl]-3-phenylpropan-1-one]", "values": [
      {"measurement": "IC50", "result": "47.1 ± 5.1", "unit": "µM"}
    ]}
  ]
}
